pKi: −log10 of the molar value.
molecular target: Carbonic anhydrase 1 (Homo sapiens, UniProt P00915)
Sequence (P00915 whole entry): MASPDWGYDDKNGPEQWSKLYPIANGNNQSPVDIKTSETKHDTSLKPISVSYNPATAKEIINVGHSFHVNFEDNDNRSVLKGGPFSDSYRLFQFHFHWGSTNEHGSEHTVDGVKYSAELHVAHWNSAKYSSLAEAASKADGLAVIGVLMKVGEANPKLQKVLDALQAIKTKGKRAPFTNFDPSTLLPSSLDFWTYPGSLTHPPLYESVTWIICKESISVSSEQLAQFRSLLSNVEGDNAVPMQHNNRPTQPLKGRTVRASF

Compound | pKi
CCN(CC)C(=S)S [DITIOCARB SODIUM] | 3.10
NS(=O)(=O)O [SODIUM SULFIMIDATE] | 3.51
F[B-](F)(F)F.[Na+] [SODIUM TETRAFLUOROBORATE] | < 0.70

Reference: ChEMBL document CHEMBL1777760, “Inhibition studies with anions and small molecules of two novel β-carbonic anhydrases from the bacterial pathogen Salmonella enterica serovar Typhimurium” (Bioorg Med Chem Lett, 2011)
